The test system of experiment [1] is AECO001 (ATCC25922). The experiment can be described thus: MIC broth microdilution, AECO001. In kind it is cell-based, E. coli. As to conditions: for MIC: Escherichia coli. The protocol:
(§1) Bacterial isolates were cultivated from −70° C. frozen stocks by overnight passages at 35° C. in ambient air on Mueller-Hinton agar (Beckton Dickinson, Franklin Lakes, N.J.). Clinical isolates tested were obtained from various geographically diverse hospitals in the US and abroad (Focus Diagnostics, Herndon, Va. and JMI, North Liberty, Iowa). Quality control strains were from the American Type Culture Collection (ATCC; Rockville, Md.). Additional primary panel strains were generated using standard molecular biology techniques.
(§2) Minimum Inhibitory Concentrations (MICs) were determined by the broth microdilution method in accordance with the Clinical and Laboratory Standards Institute (CLSI) guidelines. In brief, organism suspensions were adjusted to a 0.5 McFarland standard to yield a final inoculum between 3×10^5 and 7×10^5 colony-forming units (CFU)/mL. Drug dilutions and inocula were made in sterile, cation adjusted Mueller-Hinton Broth (Beckton Dickinson). An inoculum volume of 100 μL was added to wells containing 100 μL of broth with 2-fold serial dilutions of drug. All inoculated microdilution trays were incubated in ambient air at 35° C. for 18-24 hours. […] Performance of the assay was monitored by the use of laboratory quality-control strains and levofloxacin, a compound with a defined MIC spectrum, in accordance with CLSI guidelines.
(§3) *AECO001 is ATCC25922, AECO063 is ATCC25922 bearing an acrAB mutation, APAE001 is ATCC27853, APAE006 is a strain of P. aeruginosa in which all efflux pumps are inactivated, APAE006+PMBN indicates MICs with the indicated strain in the presence of 8 micrograms per milliliter of polymyxin B nonapeptide, AABA1060 is a clinical isolate of Acinetobacter baumannii, ASAU001 is a laboratory strain of S. aureus (ATCC29213).

Experiment [2] has as its system AECO063 (ATCC25922 bearing an acrAB mutation). Description: microbe, parasite or virus in culture. In kind it is cell-based, E. coli. The note with it: for MIC: Escherichia coli, ATCC25922, read-out: MIC AECO063. The procedure: as §1, §2, §3
In experiment [3] the test system is APAE001 (ATCC27853). Description: MIC broth microdilution, APAE001. Type of experiment: cell-based, P. aeruginosa. The note with it: Pseudomonas aeruginosa, ATCC27853, read-out: MIC APAE001, APAE001 (ATCC27853). The procedure: as §1, §2, §3
Background: Broth dilution looks for growth in wells or tubes with falling amounts of substance.

For experiment [4], the system named is APAE006 (strain of P. aeruginosa in which all efflux pumps are inactivated). Description: microbe, parasite or virus in culture. In kind it is cell-based. The note with it: Pseudomonas aeruginosa, read-out: MIC APAE006, APAE006, all efflux pumps inactivated. The procedure:
as §1, §2, §3

Experiment [5] has as its system APAE006 in the presence of 8 micrograms per milliliter of polymyxin B nonapeptide. Type of experiment: cell-based, P. aeruginosa. The note with it: APAE006 with 8 micrograms per milliliter polymyxin B nonapeptide. The procedure: as §1, §2, §3
Experiment [6] has as its system AABA1060 (clinical isolate of Acinetobacter baumannii). The experiment can be described thus: MIC broth microdilution, AABA1060. In kind it is cell-based. The note with it: for MIC: Acinetobacter baumannii, read-out: MIC AABA1060. The protocol:
as §1, §2, §3

Experiment [7] deals with ASAU001 (laboratory strain of S. aureus, ATCC29213). The experiment can be described thus: MIC broth microdilution, ASAU001. Type of experiment: cell-based. The note with it: for MIC: Staphylococcus aureus, ATCC29213, read-out: MIC ASAU001. The protocol:
as §1, §2, §3

Setting [8] is: ATCC25922, read-out: MIC AECO001 HSA AGP.
[9] abbreviates: ATCC25922, read-out: MIC AECO001.

Each structure is given as a SMILES string. Converted amounts (≈) assume the structure as drawn. Where two headings read alike, the source gives them in different places. A value given as a limit tells only on which side of the number the result lay.

As for `C[C@@H](O)[C@H](NC(=O)c1ccc(C#CC#Cc2ccc(C(F)(F)F)cc2)cc1)C(=O)NO` [Example 82-22], the “MIC AECO001” value in experiment [1] (AECO001 (ATCC25922)) is listed as “A (MIC's of 2.0 μg/mL or less = A)”. Also, the MIC in experiment [1] (setting [8]), in experiment [3] and in experiment [4] was 16 to 64 µg/mL (≈ 37.2 to 149 µM) each time. The “MIC AECO063” value in experiment [2] (AECO063 (ATCC25922 acrAB mutation)) was “A (MIC's of 2.0 μg/mL or less = A)”. Further, the “MIC APAE006 + PMBN” value in experiment [5] is listed as “A (MIC's of 2.0 μg/mL or less = A)”. Further, in experiment [6] (AABA1060 clinical isolate), the “MIC AABA1060” value is on record as “C (MIC's of greater than 16.0 μg/mL to 64.0 μg/mL = C)”. The “MIC ASAU001” value in experiment [7] (ASAU001 (ATCC29213)) is listed as “C (MIC's of greater than 16.0 μg/mL to 64.0 μg/mL = C)”.
As to `C[C@@H](O)[C@H](NC(=O)c1ccc(C#CC#Cc2ccncc2)cc1)C(=O)NO` [Example 137-19], the MIC in experiment [1] (setting [9]) was less than 2 µg/mL; in experiment [1] (setting [8]), 2 to 16 µg/mL (≈ 5.5 to 44 µM); in experiment [2], less than 2 µg/mL; in experiment [3] it was 2 to 16 µg/mL (≈ 5.5 to 44 µM); in experiment [4], less than 2 µg/mL; in experiment [6] it was 16 to 64 µg/mL (≈ 44 to 176 µM). Further, the MIC in experiment [7] fell in the range of 16 to 64 µg/mL (≈ 44 to 176 µM). Further, the “MIC APAE006 + PMBN” value in experiment [5] is given as “A (MIC's of 2.0 μg/mL or less = A)”.
Take `CC(C)(N)[C@H](NC(=O)c1ccc(C#CC#Cc2ccc(C(F)(F)F)cc2)cc1)C(=O)NO` [Example 82-26]: the MIC is less than 2 µg/mL in experiment [1] (setting [9]); 16 to 64 µg/mL (≈ 36.1 to 144 µM) in experiment [1] (setting [8]); less than 2 µg/mL in experiment [2]; 2 to 16 µg/mL (≈ 4.51 to 36.1 µM) in experiment [3]; 2 to 16 µg/mL (≈ 4.51 to 36.1 µM) in experiment [4]; 2 to 16 µg/mL (≈ 4.51 to 36.1 µM) in experiment [6]. For the same compound, the MIC in experiment [7] is 2 to 16 µg/mL (≈ 4.51 to 36.1 µM). Further, the “MIC APAE006 + PMBN” value in experiment [5] is “A (MIC's of 2.0 μg/mL or less = A)”.
`C[C@@H](O)[C@H](NC(=O)c1ccc(C#CC#Cc2ccc(F)cc2)cc1)C(=O)NO` [Example 82-23]: the MIC in experiment [1] (setting [9]) was less than 2 µg/mL; in experiment [1] (setting [8]) it was 16 to 64 µg/mL (≈ 42.1 to 168 µM); in experiment [2], less than 2 µg/mL; in experiment [3], 16 to 64 µg/mL (≈ 42.1 to 168 µM); in experiment [4] it was less than 2 µg/mL; in experiment [6] it was 16 to 64 µg/mL (≈ 42.1 to 168 µM). Further, the MIC in experiment [7] lay within 16 to 64 µg/mL (≈ 42.1 to 168 µM). Also, the “MIC APAE006 + PMBN” value in experiment [5] is given as “A (MIC's of 2.0 μg/mL or less = A)”.
With `CC(C)(N)[C@H](NC(=O)c1ccc(C#CC#Cc2ccsc2)cc1)C(=O)NO` [Example 88-15], the MIC in experiment [1] (setting [9]), in experiment [1] (setting [8]), in experiment [2], in experiment [3], in experiment [4] and in experiment [6] was less than 2 µg/mL throughout. The MIC in experiment [7] was 2 to 16 µg/mL (≈ 5.24 to 41.9 µM). For the same compound, in experiment [5], the “MIC APAE006 + PMBN” value was “A (MIC's of 2.0 μg/mL or less = A)”.
`C[C@@H](N)[C@H](NC(=O)c1ccc(C#Cc2ccc(NC(=O)CNC3CC3)cc2)cc1)C(=O)NO` [Example 130-1, N-((1S,2R)-2-Amino-1-hydroxycarbamoyl-propyl)-4-[4-(2-cyclopropylamino-acetylamino)-phenylethynyl]-benzamide]: the MIC in experiment [1] (setting [9]) is 2 to 16 µg/mL (≈ 4.45 to 35.6 µM); in experiment [1] (setting [8]), 16 to 64 µg/mL (≈ 35.6 to 142 µM); in experiment [2] it was less than 2 µg/mL; in experiment [3], less than 2 µg/mL; in experiment [4], less than 2 µg/mL; in experiment [6], 2 to 16 µg/mL (≈ 4.45 to 35.6 µM). Besides, in experiment [7], the MIC is 16 to 64 µg/mL (≈ 35.6 to 142 µM). For the same compound, the “MIC APAE006 + PMBN” value in experiment [5] was “A (MIC's of 2.0 μg/mL or less = A)”.
As to `C[C@@H](O)[C@H](NC(=O)c1ccc(/C=C/C#Cc2ccc(F)cc2)cc1)C(=O)NO` [Example 114-11], the MIC in experiment [1] (setting [9]) is less than 2 µg/mL; in experiment [1] (setting [8]), 16 to 64 µg/mL (≈ 41.8 to 167 µM); in experiment [2], less than 2 µg/mL; in experiment [3], 16 to 64 µg/mL (≈ 41.8 to 167 µM); in experiment [4], less than 2 µg/mL; in experiment [6], 2 to 16 µg/mL (≈ 5.23 to 41.8 µM). Further, the MIC in experiment [7] lay within 16 to 64 µg/mL (≈ 41.8 to 167 µM). Moreover, the “MIC APAE006 + PMBN” value in experiment [5] is given as “A (MIC's of 2.0 μg/mL or less = A)”.
